This is an account of results in patent US8575193B2, “N-substituted tetrahydroisoquinoline/isoindoline hydroxamic acid compounds” (4SC AG, priority 2008, dated 2013).

Test [1] deals with T1, rHDAC8 (Homo sapiens, UniProt Q9BY41).
T1 construct: FLAG; made in house; host or cells: baculovirus-infected Sf21 insect cells
T1 sequence (Q9BY41 1-377): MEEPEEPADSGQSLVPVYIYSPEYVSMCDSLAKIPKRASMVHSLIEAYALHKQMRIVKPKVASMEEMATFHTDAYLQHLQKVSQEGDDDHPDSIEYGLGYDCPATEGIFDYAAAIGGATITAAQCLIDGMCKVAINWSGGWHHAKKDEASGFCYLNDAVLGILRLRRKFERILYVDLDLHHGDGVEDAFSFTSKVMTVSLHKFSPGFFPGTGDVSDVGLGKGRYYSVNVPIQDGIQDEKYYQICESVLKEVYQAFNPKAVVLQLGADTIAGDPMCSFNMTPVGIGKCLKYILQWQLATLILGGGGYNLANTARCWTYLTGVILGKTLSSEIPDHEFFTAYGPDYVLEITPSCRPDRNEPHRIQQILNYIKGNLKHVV
In words: rHDAC8 enzymatic assay (recombinant FLAG-HDAC8). In kind it is biochemical. The note with it: FLAG-HDAC8 from insect cells; 50 μM Ac-RHK(Ac)K(Ac)-AMC, 3 h at 30° C.; read-out: rHDAC8 [pIC50] (converted). An excerpt:
(§1) Human HDAC1 and HDAC6 fused with the FLAG epitope are stably expressed in HEK293 cells while human HDAC3 and HDAC8 fused with the FLAG epitope are overexpressed in baculo-virus infected insect (Sf21) cells. To ensure stability of FLAG-HDAC3 the SMRT protein is co-expressed in the corresponding insect cells. […] FLAG-HDAC3 and FLAG-HDAC8 are also purified by M2-agarose affinity chromatography after mass cultivation of the insect cells and cell lysis.
(§2) The HDAC enzyme activity assay is done as described by Wegener et al. (Chem. & Biol. 10, 61-68, 2003). Briefly 40 μl of a 1:100 dilution (=0.4 μl) nuclear HeLa extract (mixture of class I and II HDACs), 29 μl enzyme buffer (15 mM Tris HCl pH 8.1, 0.25 mM EDTA, 250 mM NaCl, 10% v:v glycerol) and 1 μl test compound are added to a well of a 96 well microtiter plate and reaction started by addition of 3 μl substrate (Ac-NH-GGK(Ac)-AMC; final concentration 25 μM and final volume […]). […] After incubation at room temperature for further 40 min, fluorescence is measured using a Wallac Victor 1420 multilabel counter (Ex 355 nm, Em 460 nm) for quantification of AMC (7-amino-4-methylcoumarin) generated by trypsine cleavage of the deacetylated peptide. […] The corresponding pIC50 values of the compounds for HDAC inhibitory activity are determined from the concentration-effect curves by means of non-linear regression (Graphpad Prism software).
(§3) The HDAC1, HDAC3 and HDAC6 enzymatic assays are done with slight modifications with recombinant FLAG-HDAC1 and FLAG-HDAC6 proteins isolated from HEK293 cell lysates or recombinant FLAG-HDAC3 isolated from insect cells, respectively. The HDAC8 enzymatic assay using recombinant FLAG-HDAC8 isolated from insect cells is done with a different substrate. About 4.5 ng/well FLAG-HDAC1 and 3.1 ng/well FLAG-HDAC6 (dependent on batches and specific activity) are incubated with 6 μM or 10 μM Ac-NH-GGK(Ac)-AMC substrate, respectively, for 3 h at 30° C. About 1.7 ng/well FLAG-HDAC3 is incubated with 6 μM Ac-NH-GGK(Ac)-AMC substrate for 2 h at 30° C., while approximately 130 ng/well FLAG-HDAC8 is incubated with 50 μM Ac-RHK(Ac)K(Ac)-AMC substrate for 3 h at 30° C. Termination of the reaction and all further steps are done as described for HeLa cell nuclear extracts as a source for HDAC enzymatic activity. The corresponding pIC50 values of the compounds for HDAC1, HDAC3, HDAC6 and HDAC8 inhibitory activity are determined from the concentration-effect curves by means of non-linear regression.

In test [2] the target is T2, rHDAC6 (Homo sapiens, UniProt Q9UBN7).
T2 construct: FLAG; made in house
T2 sequence (Q9UBN7 1-1215): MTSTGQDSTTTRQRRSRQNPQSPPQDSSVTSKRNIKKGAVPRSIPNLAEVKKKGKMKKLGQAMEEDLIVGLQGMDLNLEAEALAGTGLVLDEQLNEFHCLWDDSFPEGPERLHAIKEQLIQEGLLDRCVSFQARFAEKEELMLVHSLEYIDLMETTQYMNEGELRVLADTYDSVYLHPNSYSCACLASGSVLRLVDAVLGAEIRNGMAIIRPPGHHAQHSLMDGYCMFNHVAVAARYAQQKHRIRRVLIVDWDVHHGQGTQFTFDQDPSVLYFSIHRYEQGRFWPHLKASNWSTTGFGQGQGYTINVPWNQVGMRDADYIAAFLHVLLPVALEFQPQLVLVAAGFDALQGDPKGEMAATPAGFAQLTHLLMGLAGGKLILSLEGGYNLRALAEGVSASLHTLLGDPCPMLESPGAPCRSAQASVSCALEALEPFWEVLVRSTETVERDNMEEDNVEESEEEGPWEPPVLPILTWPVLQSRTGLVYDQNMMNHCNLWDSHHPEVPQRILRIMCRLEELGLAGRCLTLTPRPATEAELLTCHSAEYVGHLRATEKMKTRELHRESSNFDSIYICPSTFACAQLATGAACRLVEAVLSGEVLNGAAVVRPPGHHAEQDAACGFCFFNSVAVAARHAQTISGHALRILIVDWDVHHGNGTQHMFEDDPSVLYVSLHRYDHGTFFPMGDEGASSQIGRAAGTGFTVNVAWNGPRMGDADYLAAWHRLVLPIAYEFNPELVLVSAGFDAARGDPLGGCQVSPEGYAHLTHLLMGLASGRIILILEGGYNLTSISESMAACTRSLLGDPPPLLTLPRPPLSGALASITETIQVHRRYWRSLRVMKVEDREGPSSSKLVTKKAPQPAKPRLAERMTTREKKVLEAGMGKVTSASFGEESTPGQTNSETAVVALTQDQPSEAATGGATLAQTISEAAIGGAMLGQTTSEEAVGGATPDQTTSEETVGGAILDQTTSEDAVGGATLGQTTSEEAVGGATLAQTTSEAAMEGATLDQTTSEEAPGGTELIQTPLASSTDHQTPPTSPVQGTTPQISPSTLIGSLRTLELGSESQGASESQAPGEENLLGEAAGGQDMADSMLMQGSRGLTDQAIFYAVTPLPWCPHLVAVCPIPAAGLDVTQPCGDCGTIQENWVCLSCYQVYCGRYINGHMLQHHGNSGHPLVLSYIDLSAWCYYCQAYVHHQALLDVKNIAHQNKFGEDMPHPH
In words: rHDAC6 enzymatic assay (recombinant FLAG-HDAC6). It is filed as biochemical. The note with it: FLAG-HDAC6 from HEK293; 10 μM Ac-NH-GGK(Ac)-AMC, 3 h at 30° C.; read-out: rHDAC6 [pIC50] (converted).
Description: as §1, §2, §3

For the molecule `CC#CC(=O)N1CCc2ccc(C(=O)NO)cc2C1` [Example 17, 2-But-2-ynoyl-N-hydroxy-1,2,3,4-tetrahydroisoquinoline-7-carboxamide], the IC50 was 10 to 1000 nM in test [1] and 1 to 100 nM in test [2].

Regarding `O=C(NO)c1ccc2c(c1)CN(C(=O)NCCc1ccccc1)CC2` [Example 22, N7-Hydroxy-N2-(2-phenylethyl)-3,4-dihydroisoquinoline-2,7(1H)-dicarboxamide], the results for the IC50 in test [1] and in test [2] were 10 to 1000 nM and 1 to 100 nM, respectively.
